Test results: ChEMBL document CHEMBL5518181, “Studies of antibacterial activity (in vitro and in vivo) and mode of action for des-acyl tridecaptins (DATs)” (Eur J Med Chem, 2024)
pKd: −log10 of the molar value. ≈ marks a conversion by molar mass, not a printed value. Calls of active or inactive are those of the source. The calls are words filed in the database; no cut-off is given here.

Columns and labels:
[1] = Hemolytic activity in human red blood cells at 400 ug/ml incubated for 45 mins by spectrophotometric analysis relative to control; format: toxicity, cell-based, Erythrocyte; settings: red blood cells (erythrocytes), at 400 µg/mL, read-out: Activity
[2] = system: Escherichia coli; test: Antibacterial activity against wild-type Escherichia coli ATCC 25922 assessed as inhibition of bacterial growth incubated for 18 hrs; format: functional; settings: read-out: MIC100
[3] = Drug localization in cytoplasm of Escherichia coli ATCC 25922 at 10 uM incubated for 10 mins by LC-MS/MS analysis; format: ADME, subcellular
[4] = system: Klebsiella pneumoniae; test: Antibacterial activity against wild-type Klebsiella pneumoniae ATCC 13883 assessed as inhibition of bacterial growth incubated for 18 hrs; format: functional; settings: read-out: MIC100
[5] = Drug uptake in Escherichia coli ATCC 25922 at 10 uM incubated for 10 mins by LC-MS/MS analysis; format: ADME
[6] = system: Escherichia coli; test: Antibacterial activity against wild-type Escherichia coli ATCC 25922 assessed as inhibition of bacterial growth by measuring fold increase in MIC incubated for 18 hrs in presence of 50% heat inactivated human serum relative to control; format: functional
[7] = system: Bacteria; test: Binding affinity to gram negative bacterial lipid II at 250 uM by ITC analysis
[8] = system: Escherichia coli; test: Antibacterial activity against Escherichia coli ATCC 25922 harboring hldE knock-out assessed as inhibition of bacterial growth incubated for 18 hrs; format: functional; settings: read-out: MIC100
[9] = system: Staphylococcus aureus; test: Antibacterial activity against […] assessed as inhibition of bacterial growth incubated for 18 hrs; format: functional; settings: ATCC 29213, read-out: MIC100
[10] = system: Pseudomonas aeruginosa; test: Antibacterial activity against wild-type Pseudomonas aeruginosa PAO1 assessed as inhibition of bacterial growth incubated for 24 hrs; format: functional; settings: read-out: MIC100
[11] = system: Acinetobacter baumannii; test: Antibacterial activity against wild-type Acinetobacter baumannii ATCC 19606 assessed as inhibition of bacterial growth incubated for 20 hrs; format: functional; settings: read-out: MIC100
[12] = system: Escherichia coli; test: Antibacterial activity against wild-type Escherichia coli ATCC 25922 assessed as inhibition of bacterial growth incubated for 18 hrs in presence of 50% heat inactivated human serum; format: functional; settings: read-out: MIC100
[13] = Cytotoxicity against human HepG2 cells incubated for 40 hrs by celltiter-glo luminescent cell viability assay; format: toxicity, cell-based
[14] = system: Klebsiella pneumoniae; test: Antibacterial activity against wild-type Klebsiella pneumoniae ATCC 13883 assessed as inhibition of bacterial growth incubated for 18 hrs in presence of 50% heat inactivated human serum; format: functional; settings: read-out: MIC100
[15] = Hydrophobicity of compound assessed as %MeCN at peak elution by RP-HPLC analysis; format: physicochemical
[16] = system: Lipopolysaccharide (LPS); test: Binding affinity to Escherichia coli O55:B5 LPS assessed as dissociation constant by ITC analysis; format: subcellular
[17] = system: Escherichia coli; test: Antibacterial activity against Escherichia coli ATCC 25922 harboring tolC knock-out assessed as inhibition of bacterial growth incubated for 18 hrs; format: functional; settings: read-out: MIC100

| Drug uptake [3] | Drug uptake [5] | SMILES | hemolysis at 0.75 h, 400 ug/ml [1] | MIC [2] | MIC [4] | fold change (FC) [6] | Activity [7] | MIC [8] | MIC [9] | MIC [10] | MIC [11] | MIC [12] | IC50 at 40 h [13] | MIC [14] | MeCN percentage at peak elution [15] | pKd [16] | MIC [17] |
| --- | --- | --- | --- | --- | --- | --- | --- | --- | --- | --- | --- | --- | --- | --- | --- | --- | --- |
| Active | Active | CC[C@H](C)[C@@H](NC(=O)[C@@H](NC(=O)[C@H](CCC(=O)O)NC(=O)[C@H](Cc1ccccc1)NC(=O)[C@@H](CCN)NC(=O)[C@H](CCN)NC(=O)[C@H](CO)NC(=O)[C@@H](Cc1c[nH]c2ccccc12)NC(=O)[C@@H](CO)NC(=O)CNC(=O)[C@@H](CCN)NC(=O)[C@H](N)C(C)C)C(C)(C)C)C(=O)N[C@@H](C)C(=O)O | 86.3% | 16 µg/mL (≈ 11.4 µM) | 4 µg/mL (≈ 2.84 µM) | – | – | – | – | – | – | – | – | – | – | – | – |
| – | – | CC[C@H](C)[C@@H](NC(=O)[C@@H](NC(=O)[C@H](CCC(=O)O)NC(=O)[C@H](Cc1ccccc1)NC(=O)[C@@H](CCN)NC(=O)[C@H](CCN)NC(=O)[C@H](CO)NC(=O)[C@@H](Cc1c[nH]c2ccccc12)NC(=O)[C@@H](CO)NC(=O)CNC(=O)[C@@H](CCN)NC(=O)[C@H](N)C(C)C)C(C)(C)C)C(=O)N[C@@H](C)C(N)=O | 2.6% | 4 µg/mL (≈ 2.84 µM) | 2 µg/mL (≈ 1.42 µM) | 2 | inactive | 0.125 µg/mL (≈ 0.0888 µM) | > 64 µg/mL | 16 µg/mL (≈ 11.4 µM) | > 64 µg/mL | 2 µg/mL | 93 µg/mL (≈ 66.1 µM) | 4 µg/mL | 41% | 4.78 | 0.25 µg/mL (≈ 0.178 µM) |
